The conditions of data set [1]: Liquid; for mass density: 303.15 K, 91.2 kPa, Vibrating tube method; for vapor or sublimation pressure: Ebulliometric method (Recirculating still).
Data set [2] can be described thus: wn = mass fraction of the nth substance listed. The following applies: 303.15 K, 91.2 kPa, Liquid, Vibrating tube method.

Each structure is given as a SMILES string. ± gives the expanded uncertainty stated by the source.

As to `CCO` [ethanol], the mass density in data set [1] came out at 781 ± 2 kg/m3.

Regarding `CCO` [ethanol] + OCC(O)CO, the mass density in data set [2] (w2 = 0) was 781 ± 2 kg/m3.

As to `CCO` [ethanol] + [Cl-].[Na+], in data set [2] (w2 = 0), the mass density came to 781 ± 2 kg/m3.

For the compound `OCC(O)CO` [glycerol], in data set [1], the mass density came to 1255 ± 3 kg/m3.

As for `OCC(O)CO` [glycerol] + CCO, the mass density was 835 ± 2 kg/m3 in data set [2] (w1 = 0.1529); 888 ± 2 kg/m3 in data set [2] (w1 = 0.2901); 939 ± 2 kg/m3 in data set [2] (w1 = 0.4124); 985 ± 2 kg/m3 in data set [2] (w1 = 0.5159); 1036 ± 2 kg/m3 in data set [2] (w1 = 0.6211); 1084 ± 2 kg/m3 in data set [2] (w1 = 0.7096). The mass density is recorded as 1136 ± 2 kg/m3 in data set [2] (w1 = 0.7971), 1174 ± 3 kg/m3 in data set [2] (w1 = 0.869), 1215 ± 3 kg/m3 in data set [2] (w1 = 0.9357) and 1255 ± 3 kg/m3 in data set [2] (w1 = 1).

`OCC(O)CO` [glycerol] + O: the mass density came out at 1022 ± 2 kg/m3 in data set [2] (w1 = 0.1159); 1044 ± 2 kg/m3 in data set [2] (w1 = 0.2056); 1080 ± 2 kg/m3 in data set [2] (w1 = 0.3521); 1108 ± 2 kg/m3 in data set [2] (w1 = 0.4646); 1133 ± 2 kg/m3 in data set [2] (w1 = 0.5524); 1255 ± 3 kg/m3 in data set [2] (w1 = 1).

In the case of `[Cl-].[K+]` [potassium chloride] + O, the mass density was 1017 ± 2 kg/m3 in data set [2] (w1 = 0.0344); 1029 ± 2 kg/m3 in data set [2] (w1 = 0.053); 1038 ± 2 kg/m3 in data set [2] (w1 = 0.067); 1058 ± 2 kg/m3 in data set [2] (w1 = 0.0975); 1077 ± 2 kg/m3 in data set [2] (w1 = 0.1259); 1095 ± 2 kg/m3 in data set [2] (w1 = 0.1526). For the same compound, the mass density in data set [2] (w1 = 0.1779) is reported as 1113 ± 2 kg/m3; in data set [2] (w1 = 0.2009) it was 1129 ± 2 kg/m3; in data set [2] (w1 = 0.2117) it was 1137 ± 3 kg/m3; in data set [2] (w1 = 0.2156), 1140 ± 2 kg/m3; in data set [2] (w1 = 0.2448) it was 1161 ± 3 kg/m3; in data set [2] (w1 = 0.2645), 1176 ± 3 kg/m3.

As to `[Cl-].[Na+]` [sodium chloride] + CCO, the mass density in data set [2] (w1 = 0.00041) is 788 ± 2 kg/m3.

As for `[Cl-].[Na+]` [sodium chloride] + O, the mass density in data set [2] (w1 = 0.0318) is reported as 1018 ± 2 kg/m3; in data set [2] (w1 = 0.0654) it was 1042 ± 2 kg/m3; in data set [2] (w1 = 0.067), 1043 ± 2 kg/m3; in data set [2] (w1 = 0.0949), 1063 ± 2 kg/m3; in data set [2] (w1 = 0.0974), 1065 ± 2 kg/m3; in data set [2] (w1 = 0.1232) it was 1084 ± 2 kg/m3. Moreover, the mass density in data set [2] (w1 = 0.1259) is reported as 1086 ± 2 kg/m3; in data set [2] (w1 = 0.1578), 1110 ± 2 kg/m3; in data set [2] (w1 = 0.1772) it was 1125 ± 2 kg/m3; in data set [2] (w1 = 0.2013) it was 1144 ± 3 kg/m3; in data set [2] (w1 = 0.225) it was 1163 ± 3 kg/m3; in data set [2] (w1 = 0.244) it was 1178 ± 3 kg/m3. Also, the mass density in data set [2] (w1 = 0.2672) is listed as 1195 ± 3 kg/m3.

For the compound `O` [water], in data set [1], the mass density stood at 996 ± 2 kg/m3. Moreover, the “vapor or sublimation pressure” value in data set [1] (327.65 K) is reported as 15.32 ± 0.9 kPa; in data set [1] (337.15 K) it was 23.61 ± 0.97 kPa; in data set [1] (341.35 K), 28.46 ± 1.4 kPa; in data set [1] (344.45 K) it was 33.81 ± 1.5 kPa; in data set [1] (348.05 K), 38.36 ± 1.5 kPa; in data set [1] (351.55 K) it was 44.42 ± 1.9 kPa. The “vapor or sublimation pressure” value in data set [1] (355.75 K) is 52.9 ± 1.9 kPa; in data set [1] (358.05 K) it was 56.84 ± 2.4 kPa; in data set [1] (361.85 K), 67.25 ± 2.7 kPa; in data set [1] (365.65 K), 77.55 ± 3 kPa; in data set [1] (370.05 K) it was 91.59 ± 3.2 kPa.

In the case of `O` [water] + OCC(O)CO, in data set [2] (w2 = 0), the mass density is 996 ± 2 kg/m3.

Take `O` [water] + [Cl-].[K+]: the mass density in data set [2] (w2 = 0) is 996 ± 2 kg/m3.

Consider `O` [water] + [Cl-].[Na+], for which the mass density in data set [2] (w2 = 0) is listed as 996 ± 2 kg/m3.

The term mass density denotes mass per unit of volume. In general, vapor or sublimation pressure refers to the pressure of vapour in equilibrium with the condensed phase.

Source of the values: the NIST ThermoML archive (doi:10.1016/j.jct.2016.02.026).
